Reference: patent US7998474B2, “Methods for treating an inflammatory disease of the bowel” (Rowett Research Institute, priority 2001, dated 2011)
Marks after values point to notes of the source that are not given here.

What was measured:
NF-κB = NF-κB luciferase reporter in transfected Caco-2 cells; format: cell-based; settings: bacteria 2 hours, luciferase after 8 hours
Protocol: C) Caco-2 cells were transfected with PPARγ DN and a NF-κB luciferase reporter construct (DN), and compared with control cells transfected with NF-κB luciferase reporter alone (MOCK).
Double transfection studies with PPARγ DN and an NF-κB luciferase reporter (gifted by Dr Israel, Pasteur Institute, Paris, France) were performed. […] To avoid this we stimulated the cells for 2 hours and then removed the bacteria by washing and determined luciferase protein production after 8 hours. We found both in the control and PPARγ DN transfected cells, that S. enteritidis induced NF-κB activation and luciferase protein synthesis (P<0.001) (FIG. 5C). In the PPARγ wild type (NT) transfected cells (luciferase alone) this response was attenuated by B. thetaiotaomicron (P<0.028), but not in dominant negative (DN) transfected cells (FIG. 5C). Similarly, there was modification of the cellular distribution of RelA, as determined using immunocytochemistry and laser scanning confocal microscopy (LSCM), in cells transfected with green fluorescent protein (GFP) with and without PPARγ DN. In the control cells (GFP alone) the distribution of RelA was predominantly cytosolic as described above for non-transfected cells (FIG. 5D (insert B,C)). In PPARγ DN transfected cells, the distribution was irregular and RelA localised to both the cytosolic and nuclear compartments (FIG. 5D, (insert D, E)).

Immunoreactive MPO = Immunoreactive MPO in intestinal contents or faeces (competitive ELISA); format: in vivo, Hooded Lister rats; settings: during 6d post-infection, mean ± SD, n = 6
Protocol: Immunoreactive MPO in intestinal contents or faeces was determined by a competitive ELISA method. Microtiter plates (Immulon 4, Dynex Technologies, Ashford, UK) were coated [10 ng/well] with human myeloperoxidase in 10 mM phosphate buffered saline pH 7.4 [PBS] overnight at 4° C. After washing [PBS containing Tween-20 (1 ml/l], plates were blocked with PBS containing bovine serum albumin (BSA, 10 g/l) for 1 hour at room temperature. Plates were washed and samples or standards added [50 μl/well] and serially diluted in PBS containing BSA (1 g/l), Tween-20 (1 ml/l) and leupeptin (1 mg/l). Rabbit anti-human myeloperoxidase antibody [Calbiochem, UK, 50 μl/well of 1:4000 dilution] was also added. The plates were incubated for 1 hour, washed and then reacted for 1 hour with biotinylated anti-rabbit IgG followed by Extravidin/peroxidase (EXTRA-3 kit, Sigma-Aldrich, Poole, UK). After washing, TMB reagent (7 μl/well) was added and incubated in the dark for up to 2 hours. The reaction was stopped by addition (50 μl/well) of 0.18M H2SO4 and the absorbance read at 450 nm. Values were expressed as immunoreactive MPO equivalents.

human PMNs = assay: Transepithelial migration of PMN through Caco-2 monolayer (MPO assay); settings: Caco-2 Transwell, S. enteritidis, MPO readout
Caco-2 cells = assay: Inflammatory cytokine gene expression in Caco-2 cells exposed to S. enteritidis (macroarray, Northern, real-time PCR); format: cell-based
[1] = Skeletal (gastrocnemius) muscle accretion in rats; format: in vivo, Hooded Lister rats; settings: 6 d post-infection
Protocol: Gastrocnemius muscle is taken as representative of skeletal muscle and total skeletal muscle in young Hooded-Lister rats as approximately 47 times the weight of the gastrocnemius muscle (Bardocz et al, 1996). Initial weight of gastrocnemius muscles 804±10 mg wet weight [194±7 mg dry weight] per 100 g initial fresh body weight.
Further pieces of jejunum and ileum (15-25 cm from the pylorus and 15-25 cm from the ileo-caecal junction respectively) were collected and frozen in liquid nitrogen for biochemical analysis, as was the remaining small intestine tissue (˜40 cm), liver, spleen, kidney, thymus, lungs, heart and gastrocnemius hind-limb muscles. These were weighed, freeze-dried and reweighed.

RelA = assay: Immunoprecipitation of RelA / PPARγ from Caco-2 cells; format: cell-based
From the text: Immuno-precipitates were resolved using SDS-PAGE. Western blots were developed using a monoclonal anti-RelA [NF-κB p65], anti-PPARγ antibodies and anti-HDAC3 (Santa Cruz).
A) Immuno-detection RelA. Caco-2 cells prepared following standard culture protocol, treatment groups (1-4). Immunoprecipitates prepared using anti-PPARγ sepharose conjugate.

RelA [NF-κB p65] = assay: Immunofluorescence localisation of RelA in Caco-2 cells; format: cell-based; settings: Caco-2 cells, 10^8 S. enteritidis, 2 hours

Bacteroides thetaiotaomicron [BT]
S. enteritidis induced NF-κB luciferase response, PPARγ dominant negative (DN) transfected cells (NF-κB): not | S. enteritidis induced NF-κB luciferase response, PPARγ wild type cells (luciferase alone) (NF-κB; P<0.028): attenuated | Faeces MPO (Immunoreactive MPO): 2.6 ± 1.0^a μg/d | PMN recruitment in vitro (human PMNs): confirmed the anti-inflammatory activity | IL-10 gene expression (Caco-2 cells): not affected | Induction of TNF-α, IL-8, MIP-2α and COX-2 expression following S. enteritidis exposure (Caco-2 cells; 10^8 S. enteritidis with 10^9 commensal bacteria, 2 hours): attenuated | Gastrocnemius muscle accretion rate, dry weight [1]: 4.2±1.0 mg dry weight per day | Gastrocnemius muscle accretion rate, wet weight [1]: 17.0±4.2 mg wet weight per day | HDAC3 association with RelA (RelA; Caco-2 cells co-cultured with S. enteritidis and B. thetaiotaomicron, 2 hours): promoted | Co-purification of RelA with PPARγ (RelA; cells treated with S. enteritidis in the presence of B. thetaiotaomicron): co-purification of RelA | Translocation of RelA to the nucleus (RelA [NF-κB p65]): abolish the translocation of RelA to the nucleus
